Holding throughout (assay): NCI-60 cell line screen, 48 h
The test system of assay [1] is SN12C renal.
The subject of assay [2] is SF-539 CNS.
Assay [3] concerns SNB-19 CNS.
In assay [4] the test system is OVCAR-5 ovarian.
The test system of assay [5] is SNB-75 CNS.
Assay [6] relates to SK-MEL-2 melanoma.
The subject of assay [7] is OVCAR-3 ovarian.
Assay [8] has as its system OVCAR-8 ovarian.
In assay [9] the test system is K-562 leukemia.
Assay [10] has as its system TK-10 renal.

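Values below derive from 48-hour exposures of cells grown in 96-well plates, with endpoints linearly interpolated between the two concentrations bracketing the appropriate inhibition level. GI50: concentration for 50% inhibition of growth. TGI is the concentration that stops growth completely.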

Consider `COc1cc2cnc3c4cc(OC(C)C)c(OC)cc4ccc3c2cc1OC`, for which the TGI in [1], in assay [2], in assay [3], in assay [4], in [5] and in assay [6] was above 100 µM each time. For the same compound, the TGI in assay [7], in assay [8], in assay [9] and in [10] was above 100 µM in each case.

With `CN(C)CCCNC1=C(Cl)C(=O)c2ccccc2C1=O`, the GI50 was 1.62 µM in [1]; 12.8 µM in assay [2]; 1.76 µM in assay [3]; 4.27 µM in assay [4]; 1.36 µM in assay [5]; 2.11 µM in assay [6]. For the same compound, the GI50 was 1.69 µM in assay [7], 2.08 µM in assay [8], 2.47 µM in assay [9] and 15.4 µM in assay [10]. The TGI in assay [1] stood at 3.12 µM; in assay [2], 27 µM; in assay [3] it was 3.28 µM; in [4], 9.63 µM; in assay [5], 2.67 µM; in assay [6], 4.15 µM. Further, the TGI was 3.17 µM in [7], 4.39 µM in [8], 6.03 µM in assay [9] and 29 µM in assay [10].

For the compound `CC(=O)C(CN(C(C)C)C(C)C)C(c1ccccc1)c1c(O)c2ccccc2oc1=O` (stereo not given), the TGI in [1], in [2], in [3], in assay [4], in assay [5] and in assay [6] was above 100 µM throughout. Further, the TGI in assay [7], in assay [8], in assay [9] and in assay [10] was above 100 µM each time.

As for `O=C(N/C(=C\c1cc(Cl)ccc1Cl)c1nc2[nH]c(=S)[nH]c(=O)c2[nH]1)c1ccccc1`, the TGI in [1] is above 66.6 µM; in [2] it was above 76.7 µM; in [3], above 100 µM; in assay [4], above 100 µM; in [5], above 100 µM; in assay [6] it was above 100 µM. For the same compound, the TGI was above 100 µM in assay [7], above 71.8 µM in [8], above 62.6 µM in assay [9] and above 100 µM in assay [10].

In the case of `CCOC(=O)C(Sc1ccccc1)c1c(OC)cc(=O)oc1/C=[N+](/[O-])c1ccc(N(C)C)cc1` (stereo not given), the TGI was 32 µM in assay [1]; 56.9 µM in assay [2]; above 100 µM in assay [3]; 83.1 µM in [4]; 76.4 µM in [5]; 77.5 µM in assay [6]. Besides, the TGI in assay [7] is 26 µM; in [8], 44.2 µM; in [9] it was 23.8 µM; in [10], 89.5 µM.

As for `COc1ccc(-n2/c(=N/C(=S)N(C)C)ss/c2=N\C(=S)N(C)C)cc1`, the TGI in [1] was above 100 µM; in assay [2], above 100 µM; in [3], 45.5 µM; in assay [4] it was above 100 µM; in [5], 52.6 µM; in [6] it was above 100 µM. The TGI in assay [7] was 53.1 µM; in assay [8], above 100 µM; in [9], above 100 µM; in assay [10] it was above 100 µM.

`CCOc1ccccc1-n1c(CN2CCN(C(=O)COc3ccc(CNCCCCCCN4C5CCCC4CC(OC(=O)Nc4cc(C)ccc4OC)C5)cc3)CC2)nc2ccccc2c1=O` (stereo not given): the GI50 is 1.76 µM in assay [1]; 1.69 µM in assay [2]; 1.76 µM in assay [3]; 1.9 µM in assay [4]; 1.4 µM in assay [5]; 1.99 µM in [6]. The GI50 in [7] is 1.78 µM; in [8] it was 1.83 µM; in assay [9], 0.651 µM; in assay [10] it was 1.72 µM. Moreover, the TGI in assay [1] amounted to 3.24 µM; in assay [2], 3.14 µM; in assay [3], 3.35 µM; in [4], 3.45 µM; in assay [5] it was 2.72 µM; in [6] it was 3.62 µM. Also, the TGI in [7] worked out at 3.49 µM; in assay [8], 3.75 µM; in assay [9], 1.36 µM; in [10] it was 3.14 µM.

For `CN(CC(=O)O)S(=O)(=O)c1ccc2ccccc2c1`, the TGI in [1], in assay [2], in assay [3], in assay [4], in assay [5] and in assay [6] was above 100 µM each time. The TGI in assay [7], in assay [8], in assay [9] and in assay [10] was above 100 µM each time.

With `O=C1c2ccccc2C(=O)c2sc(Nc3cccc(Cl)c3)nc21`, the TGI in assay [1] is 2.84 µM; in assay [2], 3.44 µM; in assay [3], 4.36 µM; in [4] it was 4.78 µM; in [5], 3.67 µM; in [6], 3.79 µM. Further, the TGI in assay [7] amounted to 1.8 µM; in [8], 3.27 µM; in assay [9] it was 4.36 µM; in [10] it was 5.39 µM.

As to `COc1cc(C(=O)/C=C/c2sc(Cl)nc2Cl)cc(OC)c1OC`, the GI50 was 1.74 µM in assay [1]; 1.72 µM in assay [2]; 1.72 µM in assay [3]; 1.72 µM in assay [4]; 1.66 µM in assay [5]; 2.39 µM in [6]. For the same compound, the GI50 is 1.77 µM in [7], 1.93 µM in [8], 1.84 µM in assay [9] and 2.06 µM in assay [10]. In addition, the TGI is 3.2 µM in assay [1]; 3.12 µM in [2]; 3.18 µM in assay [3]; 3.27 µM in assay [4]; 3.8 µM in [5]; 5.86 µM in [6]. Besides, the TGI in [7] is 3.21 µM; in [8] it was 3.96 µM; in assay [9] it was above 100 µM; in assay [10] it was 4.93 µM.

Take `O=C(/C=C/c1ccccc1Cl)c1ccc(Cl)c(Cl)c1`: the TGI in [1] is above 100 µM; in assay [2] it was 33.1 µM; in [3], 29.9 µM; in assay [4], 32.8 µM; in assay [5] it was 27.3 µM; in [6], 36.9 µM. Also, the TGI in assay [7] amounted to 28.7 µM; in assay [8] it was 33 µM; in assay [9] it was 67.9 µM; in [10], 38.8 µM.
